We go through one molecule from patent US6630169B1, “Particulate delivery systems and methods of use” (priority 2000, dated 2003).

The series in a line: Bioavailability of fluorescent-labeled HA PulmoSpheres, plasma peptide by fluorometry. Type of series: in vivo. The settings on record: mice. The method, then: A formulation comprising fluoroscein-HA peptide (20% wt/wt) PulmoSpheres (f-HA-Pul) prepared as in Example IV was suspended in perflubron. Metofane anesthetized mice were inoculated intranasally (i.n.) with a […] volume of f-HA-Pul in perflubron, corresponding to […] of peptide dose. Blood samples were collected by ocular bleeding in heparin-treated tubes, the plasma was separated and the concentration of the peptide was measured by fluorometry. As a control, an intravenous i.v.) inoculation of […] of f-HA peptide in […] of sterile saline (n=4 for all groups) was used.

Residues, ends and D or L forms follow the SMILES beside them. *: point of attachment. 5FAM = O=C1OC2(c3ccc(O)cc3Oc3cc(O)ccc32)c2ccc(C(=O)*)cc21

Take `CC[C@H](C)[C@H](NC(=O)[C@H](CCC(=O)O)NC(=O)[C@H](Cc1ccccc1)NC(=O)[C@H](CCCNC(=N)N)NC(=O)[C@H](CCC(=O)O)NC(=O)[C@H](Cc1ccccc1)NC(=O)[C@H](CO)NC(=O)c1ccc2c(c1)C(=O)OC21c2ccc(O)cc2Oc2cc(O)ccc21)C(=O)N[C@@H](Cc1ccccc1)C(=O)N1CCC[C@H]1C(=O)N[C@@H](CCCCN)C(=O)N[C@@H](CCC(=O)O)C(=O)O` [f-HA peptide] (5FAM-SFERFEIFPKE-OH; N-terminus and C-terminus assumed): the “total clearance (elimination via urine)” value was at most 6 h. Further, the Tmax (mouse, in vivo, i.n., f-HA-Pul in perflubron) is 20 min. Besides, where the note is “mouse, in vivo, i.n., f-HA-Pul in perflubron, vs i.v. f-HA peptide in saline, read-out: absolute bioavailability”, the bioavailability is about 5%.

The Tmax is the time from dosing to the highest level. Usually bioavailability stands for the share of a dose that reaches the circulation, judged against a reference dose that is usually intravenous.
